Among the data in PubChem BioAssay AID2754 (The Scripps Research Institute Molecular Screening Center, 2010) are IC50 values, retold here.

The structures appear in SMILES notation. The source made the active and inactive calls. No rule for the calls is given here.

Usually IC50 stands for the concentration needed to halve the response being measured.

The target of the test is VIM-2 metallo-beta-lactamase (Pseudomonas aeruginosa) (UniProt Q932Y6). In words: VIM-2 metallo-beta-lactamase inhibitor potency, dose response, biochemical, epi-absorbance, common IMP-1/VIM-2 hits (AID 2754). As to conditions: purified VIM-2 enzyme, absorbance substrate hydrolysis.
As to `Cc1nn(C)c(C)c1N1C(=O)c2cccc3c(N)ccc(c23)C1=O`, the concentration for half-maximal inhibition (IC50) was 8.99 µM.
Next, `N#CC(C#N)=C1C=C2C=C(N3CCCCC3)CCC2CC1` (stereo unspecified): 2.33 µM; `CCOC(=O)c1c2c3c(cccc3n(C)c1=O)C(=O)c1ccccc1-2`: “inactive”; `Cc1ccc2[nH]cc(/C=C/c3cc[n+](C)cc3)c2c1`: “inactive”.
Next, `Cc1n[nH]c(C)c1N1C(=O)c2cccc3c(N4CCCCCC4)ccc(c23)C1=O`: “inactive”.
In the case of `CN1C(=O)c2cccc3c(N)ccc(c23)C1=O`, the IC50 was 7.17 µM.
As for `CCN(CC)c1ccc2cc(-c3nc4ccccc4[nH]3)c(=O)oc2c1`, the IC50 is 2.73 µM.
Turning to `COc1cc(OC)c(-c2c3cc(O)c(=O)cc-3oc3cc(O)c(O)cc23)cc1OC`, the IC50 is 5.11 µM.
For `CCN(CC)c1ccc(/C=C/C(=O)c2ccc(Br)cc2)cc1`, the IC50 is 8.45 µM.
As to `CC(C)n1cc(/C=C/c2cc[n+](C)cc2)c2ccccc21`, the IC50 entry was “inactive”.
Next, `CCCCN(C)C1=CC2=CC(=C(C#N)C#N)CCC2CC1` (stereo unspecified): 4.07 µM.
In the case of `O=P(O)(O)c1cc(-c2ccccc2)oc1-c1ccccc1`, the IC50 result is “inactive”.
With `O=C1c2cccc3c(O)ccc(c23)C(=O)N1c1ccc(Cl)cc1` the entry was “inactive”; with `CCN(CC)c1ccc2cc(C=O)c(=O)oc2c1`, “inactive”.
With `CN1C(=O)/C(=C\c2ccc(N(C)C)cc2)OC1=S` the figure was > 59.6 µM (inactive); with `O=C(CCN1C(=O)/C(=C/c2ccc(Cl)cc2)SC1=S)NCCCn1ccnc1`, > 59.6 µM (inactive); with `COCCCn1c(=NC(=O)c2ccccc2)c(C#N)cc2c(=O)n3cccc(C)c3nc21`, > 59.6 µM (inactive).
With `N#CC(C#N)=C1C=C2C=C(N3CCOCC3)CCC2CC1` (stereo unspecified), the IC50 is 2.74 µM.
Next, `CCN(CC)c1ccc2cc(C(=O)NCc3ccc(F)cc3)c(=N)oc2c1`: > 59.6 µM (inactive); `N#CC(C#N)=C1C=C2C=C(N3CCCCCC3)CCC2CC1` (stereo unspecified): 2.51 µM.
`COc1ccccc1-c1csc(-n2ncc(C#N)c2N)n1`: the IC50 was > 59.6 µM (inactive).
Next, `CC(=O)Oc1ccc2c(c1)Oc1cc(OC(C)=O)ccc1C21OC(=O)c2ccccc21`: “inactive”; `Nc1cccc(N2C(=O)c3cccc4c(N)ccc(c34)C2=O)c1`: “inactive”.
Next, `COc1ccc2c(Cl)c(C(=O)NCCCn3ccnc3)sc2c1Cl`: > 59.6 µM (inactive).
Turning to `N=C1/C(=C\c2coc3ccccc3c2=O)C(=O)N=C2SC=CN12`, the IC50 result is “inactive”.
Turning to `CCN(CC)c1ccc2c(-c3ccc(S(=O)(=O)O)cc3S(=O)(=O)[O-])c3ccc(=[N+](CC)CC)cc-3oc2c1`, the IC50 is > 59.6 µM (inactive).
With `COc1ccc(-c2occ(C(=O)O)c2C(=O)O)cc1`, the IC50 result is “inactive”.
With `COc1ccc(/C=C2/SC(c3ccc(C)cc3)=NC2=O)cc1OC` the figure was > 59.6 µM (inactive); with `CCOc1ccc(/C=C2\CCCc3c2nc2ccccc2c3C(=O)O)cc1OC`, “inactive”; with `O=C1c2cccc3c(O)ccc(c23)C(=O)N1Cc1ccco1`, “inactive”.
On to `O=C(Nc1ccc2oc(-c3ccccc3F)nc2c1)c1ccc([N+](=O)[O-])o1`, for which the IC50 is > 59.6 µM (inactive).
As for `CCCCC(Sc1nc(N)c(NC(=O)c2ccco2)c(=O)[nH]1)C(=O)O` (stereo unspecified), the IC50 is > 59.6 µM (inactive).
For the compound `CN1CCN(C2=CC3=CC(=C(C#N)C#N)CCC3CC2)CC1` (stereo unspecified), the IC50 is 3 µM.
Next, `CNc1ccc2c3c(cccc13)C(=O)N(C)C2=O`: 3.06 µM; `CC(=O)Nc1ccc(N2C(=O)c3cccc4c(O)ccc(c34)C2=O)cc1`: “inactive”.
For `CC(C)C(CCN1C(=O)c2ccccc2C1=O)c1ccco1` (stereo unspecified), the IC50 entry was “inactive”.
As to `O=C1/C(=C\c2cc(Cl)c(O)c(Cl)c2)SC(=S)N1Cc1ccccc1`, the IC50 entry is “inactive”.
With `CCCCCCn1c(=O)[nH]c2nc3cc(N)ccc3nc2c1=O` the entry was “inactive”; with `O=c1cc(C(F)(F)F)c2cc3c4c(c2o1)CCCN4CCC3`, “inactive”.
Take `CCCN1C(=O)c2cccc3c(N4CCCCC4)ccc(c23)C1=O`: the IC50 was > 59.6 µM (inactive).
On to `CC(C)(C)c1ccc(-c2c(C(=O)O)c(C(=O)O)c3n2CSC3)cc1`, for which the IC50 result is “inactive”.
With `CCCCn1c(=O)[nH]c2nc3cc(N)ccc3nc2c1=O` the entry was “inactive”.
With `Cc1ccc(Cn2c(C(C)Nc3nc(-c4ccc(C)cc4)cs3)nc3cc(Cl)c(Cl)cc32)cc1` (stereo unspecified) the entry was “inactive”.
Next, `CN(/N=C/c1ccc(-c2ccc([N+](=O)[O-])cc2)o1)c1ccccc1`: > 59.6 µM (inactive); `O=C1CCN2C=Nc3cccc4ccc1c2c34`: 9.22 µM; `Nc1ccc2c3c(cccc13)C(=O)N(c1ccccc1)C2=O`: “inactive”.
For the compound `O=C(Nc1ccc(C(F)(F)F)cc1)c1ccc(NC(=O)C2CCCO2)cc1` (stereo unspecified), the IC50 was > 59.6 µM (inactive).
As to `Cc1nn(-c2ccccc2)c(Cl)c1/C=C(\CC(=O)O)c1nc2ccccc2s1`, the IC50 was 9.26 µM.
Turning to `COC(=O)c1sccc1NC(=O)c1ccc(C#N)cc1`, the IC50 was > 59.6 µM (inactive).
With `CCOc1cc2c(cc1/C=C/c1noc(C)c1[N+](=O)[O-])OC(C)C2` (stereo unspecified) the figure was > 59.6 µM (inactive); with `CCn1c(=S)sc2c(=O)n(CC(=O)Nc3ccccc3C(F)(F)F)c(C)nc21`, > 59.6 µM (inactive).
With `CCN(CC)C1=CC2=CC(=C(C#N)C#N)CCC2CC1` (stereo unspecified) the figure was 2.4 µM.
With `COc1cc(/C=C2/SC(=S)N(Cc3ccccc3)C2=O)cc(OC)c1O` the figure was > 59.6 µM (inactive); with `COCCCNc1c2c3c(cccc3[nH]c1=O)C(=O)c1ccccc1-2`, 1.84 µM; with `COc1ccccc1N1N=C(c2ccc([N+](=O)[O-])cc2)CC1c1ccccc1` (stereo unspecified), > 59.6 µM (inactive).
For `COc1ccc(/C=C2\CCCc3c2nc2ccccc2c3C(=O)O)cc1OC`, the IC50 entry was “inactive”.
On to `Cc1cccc(N2C(=O)c3cccc4c(N)ccc(c34)C2=O)c1`, for which the IC50 entry is “inactive”.
For the compound `CN(C)/C=C1\C=C2C(=O)c3ccccc3N2C1=O`, the IC50 is 0.894 µM.
Turning to `CCc1cc(=O)oc2cc(C)c(CN3CCCC3)c(O)c12`, the IC50 was 6.96 µM.
For the compound `O=C1c2ccccc2-c2onc3ccc(NCCCn4ccnc4)c1c23`, the IC50 is 1.72 µM.
With `CCN1/C(=C/C=C/c2oc3ccc4ccccc4c3[n+]2CC)Oc2ccc3ccccc3c21`, the IC50 is > 59.6 µM (inactive).
As to `O/C=c1\ccc2cccc3nc(C(F)(F)F)nc1c23`, the IC50 is 8.76 µM.
With `CCOc1ccc(-c2cc(C(=O)NCCCn3ccnc3)c3cc(Br)ccc3n2)cc1` the figure was > 59.6 µM (inactive); with `CCOC(=O)C1CCCN(c2ccc([N+](=O)[O-])c3nonc23)C1` (stereo unspecified), “inactive”; with `O=c1ccc2c(-c3ccccc3)c3ccc(O)cc3oc-2c1`, 0.374 µM.
Next, `O=[N+]([O-])c1ccc(N2CCCCCC2)c2nonc12`: “inactive”; `Cn1cc(/C=C(\C(=O)O)C(C(=O)O)=C2CCCCC2)c2ccccc21`: “inactive”; `Nc1ccc(-c2c3ccc(=O)cc-3oc3cc(O)ccc23)cc1C(=O)O`: 4.47 µM.
With `CCC(=C/c1sc2ccc3ccccc3c2[n+]1C)/C=C1\Sc2ccc3ccccc3c2N1C` the figure was > 59.6 µM (inactive); with `COc1ccc(-c2cc(=O)oc3c(C)c(OCC(=O)NCCCn4ccnc4)ccc23)cc1`, “inactive”.
For the compound `CCN1CCN(C2=CC3=CC(=C(C#N)C#N)CCC3CC2)CC1` (stereo unspecified), the IC50 is 3.7 µM.
